# Molecular target: B*0702 (Homo sapiens, UniProt P01889)
# Assay: Class I molecular binding assay (peptide binding to purified HLA class I molecule)
# Conditions: binding value of the peptide for HLA allele B*0702; kind of value and unit not given
sequence,measurement,value
SPALNKMFBQI [Peptide 34.0397],B*0702,0.1800
